In brackets after ≈: the same amount, converted by molar mass. Read-outs that look alike come from different tables or passages of the source. Where a SMILES comes first, the peptide text is derived from it. Where no end group is shown, it is not given here.
Columns and labels:
[1] = Hydrophobicity (hydropathy) from reverse-phase HPLC retention scale; assay type: physicochemical; design: key to Average Hydrophobicity of Core Sequence / Mean Core segment Hydrophobicity: arithmetic average of Table 1 hydropathy values of constituent residues; key to Hydropathy: hydropathy scale from HPLC retention times of model peptides (Table 1); conditions: for Mean residue hydropathy of X-residue peptide / Hydropathy: Table 1; for Hydropathy: of the X-residue, from HPLC retention of KKAAAXAAAAAXAAWAAXAAAKKKK-amide peptides; for Mean Core segment Hydrophobicity: Table 3
Description: The “hydrophobicity value” of an amino acid residue means the hydrophobicity value of that residue as shown in Table 1 or as calculated by the method described herein.
The “hydrophobicity value” of an amino acid sequence or peptide means the arithmetic average of the individual hydrophobicity values of the constituent amino acid residues of the sequence.
Various hydrophobicity scales for proteins and amino acids have been described in the literature but the inventors have established the hydrophobicity scale of Table 1 based on the retention times on HPLC of a series of hydrophobic model peptides, as described in Liu and Deber (1998), Biopolymers (Peptide Science), v. 47, pp. 41-62).
The hydrophobicity value shown for each amino acid in Table 1 as “hydropathy” may be used as the hydrophobicity value for that amino acid in any peptide whose hydrophobicity value has to be calculated. The “average hydrophobicity” of a peptide containing amino acids shown in Table 1 is calculated by determining the arithmetic average of the Table 1 “hydropathy” values for the constituent amino acids of the sequence.
Peptides in accordance with the invention may also include other amino acids. For an amino acid not included in Table 1, the hydrophobicity value may be determined by the same method as described herein for obtaining the values of Table 1. For example, a peptide such as KKAAAXAAAAAXAAXAAXAAAKKKK-amide (Sequence ID No: 1) may be synthesized, where X is the amino acid whose hydrophobicity value is to be determined, and the retention time of the peptide on HPLC is determined, as described in the Examples. Similar peptides where X is Lys or Phe are also prepared and their HPLC retention times determined. The retention time, Rx, is converted to the hydropathy value H for the selected amino acid using the equation
H=(10×ΔtRx-Lys/ΔtRPhe-Lys)−5.00
where ΔtRx-Lys=retention time difference in minutes between Rx and the retention time of the most hydrophilic peptide tested (X=Lys) and where ΔtRPhe-Lys=retention time difference in minutes between the most hydrophobic peptide tested (X=Phe) and the most hydrophilic (X=Lys).
The retention time of each peptide was determined on a C4 reversed-phase column (4.6×250 mm, 300 A pore size, 10 μ particle size). Equal amounts of each peptide were injected into the column and eluted at a flow rate of 1 mL/min, utilizing a linear AB gradient (2% B/min), where buffer A was 0.1% TFA/ddH2O, and buffer B was 0.1% TFA/acetonitrile. The retention time of each peptide reported here was the average of triplicate measurements.

E. coli DC2 = assay: Assay of antibacterial activity (MIC), E. coli DC2; assay type: cell-based, Escherichia coli; conditions: Table 3; Gram-negative
Description: (§1) The bacterial strains used were E. coli C498, E. coli C500, Escherichia coli UB1005 and its antibiotic supersusceptible derivative DC2 (22); a clinical isolate of Staphylococcus epidermidis (C621); coryneform bacterial strain Corynebacterium xerosis (C875); and E. coli ATCC 25922, Staphylococcus aureus ATCC 25923, Enterococcus faecalis ATCC 29212, Bacillus subtilis ATCC 6633 and Pseudomonas aeruginosa ATCC 27853, all from American Type Culture Collection.
(§2) Peptide antibacterial activity was assessed by the method of R. Hancock et al. (Wu & Hancock (1999), J. Biol. Chem., v. 274, pp. 29-35). Test strains of bacteria from Mueller Hinton agar (MHA) plates were inoculated into 5 ml Mueller Hinton Broth (MHB) in tubes and grown overnight at 37° C. on a shaker (180 rpm). Serial dilutions of test peptides (at 10 times the required test concentrations) were made in 0.01% acetic acid, 0.2% BSA, in polypropylene or coated glass tubes as follows: the test peptide was (a) dissolved in distilled water at 20 times the required maximum concentration (enough final volume for all tests to be performed on a given day); (b) diluted into an equal volume of 0.02% acetic acid, 0.4% BSA to give 10 times the required maximum concentration; (c) serial doubling dilutions were performed in 0.01% acetic acid, 0.2% BSA to provide serial dilutions of peptides at 10 times the required test concentrations, e.g., 640, 320, 160, . . . 2.5 μg/ml. (No deleterious effects of long-term storage of peptides in these media have been detected). Overnight bacterial cultures were diluted in MHB to give 2−7×10^5 colony forming units/ml. Bacterial suspension (100 μl) was dispensed in each well; controls without bacteria were maintained in parallel. To each well was added 11 μl of 10× test peptide and plates were incubated at 37° C. for 18-24 hours, and checked again at 40-48 hours. Plates were read visually and at 600 nm in a microplate reader (Molecular Devices).
(§3) A further number of the peptides of the invention were tested for antimicrobial activity against a range of Gram-positive and Gram-negative bacteria by the assay described immediately before Example 1.

E. coli UB1005 = assay type: cell-based, Escherichia coli
Description: as §1, §2, §3

[2] = test system: Staphylococcus epidermidis (C621); assay type: cell-based
Description: as §1, §2
(§4) were synthesized. The antibacterial activity of these peptides was determined against both Gram-positive bacteria ([…], Corynebacterium xerosis) and Gram-negative bacteria (various strains of E. coli). The results are shown in Table 2, along with the average hydrophobicity of each peptide, calculated as described herein.
as §3

[3] = test system: Corynebacterium xerosis (C875); assay type: cell-based
Description: as §1, §2, §4, §3

| Compound | Mean residue hydropathy of X-residue peptide [1] | Hydropathy [1] | Mean Core segment Hydrophobicity [1] | MIC E. coli DC2 (E. coli DC2) [µM] | MIC E. coli UB1005 (E. coli UB1005; UB1005) [µM] | MIC S. epidermidis C621 ([2]; C621) [µM] | MIC C. xerosis C875 [3] [µM] | MIC E. coli UB1005 (E. coli UB1005; Table 3, Gram-negative) [µM] | MIC S. epidermidis C621 ([2]; Table 3, Gram-positive) [µM] | Antimicrobial activity, spectrum (in words) ([3]; Example 5, active on C. xerosis, not on the other bacteria tested) | MIC C. xerosis C875 ([3]; Table 3, Gram-positive) [µM] |
| --- | --- | --- | --- | --- | --- | --- | --- | --- | --- | --- | --- |
| N=C(N)NCCC[C@H](N)C(=O)O [Arg] | −0.05 | −2.77 | – | – | – | – | – | – | – | – | – |
| C[C@H](NC(=O)[C@H](C)NC(=O)[C@H](C)NC(=O)[C@@H](NC(=O)[C@H](C)NC(=O)[C@H](C)NC(=O)[C@H](C)NC(=O)[C@H](CCCCN)NC(=O)[C@@H](N)CCCCN)[C@@H](C)O)C(=O)N[C@@H](C)C(=O)N[C@@H](C)C(=O)N[C@H](C(=O)N[C@@H](C)C(=O)N[C@@H](C)C(=O)N[C@@H](Cc1c[nH]c2ccccc12)C(=O)N[C@@H](C)C(=O)N[C@@H](C)C(=O)N[C@H](C(=O)N[C@@H](C)C(=O)N[C@@H](C)C(=O)N[C@@H](C)C(=O)N[C@@H](CCCCN)C(=O)N[C@@H](CCCCN)C(=O)N[C@@H](CCCCN)C(=O)N[C@@H](CCCCN)C(N)=O)[C@@H](C)O)[C@@H](C)O [T] (H-KKAAATAAAAATAAWAATAAAKKKK-NH2; N-terminus assumed) | 0.22 | −1.08 | 0.22 | >64 | >64 | >64 | >64 | – | – | – | – |
| Gln: KKAAAXAAAAAXAAWAAXAAAKKKK-amide peptide with X-residue Gln (KKAAAQAAAAAQAAWAAQAAAKKKK-NH2) | −0.04 | −2.75 | – | – | – | – | – | – | – | – | – |
| CC(C)[C@H](NC(=O)[C@H](C)NC(=O)[C@H](C)NC(=O)[C@H](C)NC(=O)[C@H](CCCCN)NC(=O)[C@@H](N)CCCCN)C(=O)N[C@@H](C)C(=O)N[C@@H](C)C(=O)N[C@@H](C)C(=O)N[C@@H](C)C(=O)N[C@@H](C)C(=O)N[C@H](C(=O)N[C@@H](C)C(=O)N[C@@H](C)C(=O)N[C@@H](Cc1c[nH]c2ccccc12)C(=O)N[C@@H](C)C(=O)N[C@@H](C)C(=O)N[C@H](C(=O)N[C@@H](C)C(=O)N[C@@H](C)C(=O)N[C@@H](C)C(=O)N[C@@H](CCCCN)C(=O)N[C@@H](CCCCN)C(=O)N[C@@H](CCCCN)C(=O)N[C@@H](CCCCN)C(N)=O)C(C)C)C(C)C [V] (H-KKAAAVAAAAAVAAWAAVAAAKKKK-NH2; N-terminus assumed) | 0.87 | 3.02 | 0.87 | >32 | – | – | – | >32 | >32 | activity against gram-positive C. xerosis only | 0.5 (≈ 1.17 µg/mL) |
| Pro: KKAAAXAAAAAXAAWAAXAAAKKKK-amide peptide with X-residue Pro (KKAAAPAAAAAPAAWAAPAAAKKKK-NH2) | −0.39 | −4.92 | – | – | – | – | – | – | – | – | – |
| Glu: KKAAAXAAAAAXAAWAAXAAAKKKK-amide peptide with X-residue Glu (KKAAAEAAAAAEAAWAAEAAAKKKK-NH2) | 0.16 | −1.49 | – | – | – | – | – | – | – | – | – |
| C[C@H](NC(=O)[C@H](C)NC(=O)[C@H](C)NC(=O)[C@H](CC(N)=O)NC(=O)[C@H](C)NC(=O)[C@H](C)NC(=O)[C@H](C)NC(=O)[C@H](CCCCN)NC(=O)[C@@H](N)CCCCN)C(=O)N[C@@H](C)C(=O)N[C@@H](C)C(=O)N[C@@H](CC(N)=O)C(=O)N[C@@H](C)C(=O)N[C@@H](C)C(=O)N[C@@H](Cc1c[nH]c2ccccc12)C(=O)N[C@@H](C)C(=O)N[C@@H](C)C(=O)N[C@@H](CC(N)=O)C(=O)N[C@@H](C)C(=O)N[C@@H](C)C(=O)N[C@@H](C)C(=O)N[C@@H](CCCCN)C(=O)N[C@@H](CCCCN)C(=O)N[C@@H](CCCCN)C(=O)N[C@@H](CCCCN)C(N)=O [N] (H-KKAAANAAAAANAAWAANAAAKKKK-NH2; N-terminus assumed) | −0.16 | −3.79 | −0.21 | >64 | >64 | >64 | >64 | – | – | – | – |
| K25: KKAAAXAAAAAXAAWAAXAAAKKKK-amide peptide with X = Lys, most hydrophilic peptide tested (KKAAAKAAAAAKAAWAAKAAAKKKK-NH2) [Peptide K25] | −0.40 | −5.00 | – | – | – | – | – | – | – | – | – |
| C[C@H](NC(=O)CNC(=O)[C@H](C)NC(=O)[C@H](C)NC(=O)[C@H](C)NC(=O)[C@H](CCCCN)NC(=O)[C@@H](N)CCCCN)C(=O)N[C@@H](C)C(=O)N[C@@H](C)C(=O)N[C@@H](C)C(=O)N[C@@H](C)C(=O)NCC(=O)N[C@@H](C)C(=O)N[C@@H](C)C(=O)N[C@@H](Cc1c[nH]c2ccccc12)C(=O)N[C@@H](C)C(=O)N[C@@H](C)C(=O)NCC(=O)N[C@@H](C)C(=O)N[C@@H](C)C(=O)N[C@@H](C)C(=O)N[C@@H](CCCCN)C(=O)N[C@@H](CCCCN)C(=O)N[C@@H](CCCCN)C(=O)N[C@@H](CCCCN)C(N)=O [G] (H-KKAAAGAAAAAGAAWAAGAAAKKKK-NH2; N-terminus assumed) | −0.13 | −3.31 | −0.13 | >64 | >64 | >64 | >64 | – | – | – | – |
| His: KKAAAXAAAAAXAAWAAXAAAKKKK-amide peptide with X-residue His (X = His; C-terminal amide) | −0.34 | −4.63 | – | – | – | – | – | – | – | – | – |
| Asp: KKAAAXAAAAAXAAWAAXAAAKKKK-amide peptide with X-residue Asp (KKAAADAAAAADAAWAADAAAKKKK-NH2) | 0.00 | −2.49 | – | – | – | – | – | – | – | – | – |
